Reference: patent publication US4552879A, “Benzoheterocyclic compounds and pharmaceutical composition thereof” (Otsuka Pharmaceutical Co., Ltd., priority 1980, dated 1985)
Converted amounts (≈) assume the structure as drawn. Where two headings read alike, the source gives them in different places.

Assays:
Assay in all cases: Minimum inhibitory concentration, serial dilution method on agar plate
Assay type in all cases: cell-based
[1] = system: Streptococcus pyogenes IID S-23; conditions: for MIC: Streptococcus pyogenes
[2] = system: Pseudomonas aeruginosa E-2; conditions: for MIC: Pseudomonas aeruginosa
[3] = system: Salmonella typhi 0-901 (NCTC 8393); conditions: Salmonella enterica
[4] = system: Klebsiella pneumoniae
[5] = system: Proteus rettgeri NIH 96; conditions: Providencia rettgeri
[6] = system: Pseudomonas aeruginosa NCTC 10490; conditions: for Minimum Inhibitory Concentration: 1×10^6 cells/ml; for MIC: Pseudomonas aeruginosa, NCTC10490, 1×10^8 cells/ml
[7] = system: Escherichia Coli NIHJ JC-2 (IFO 12734)
[8] = system: Serratia marcescens IFO 12648
[9] = system: Shigella sonnei EW 33
Description: The antimicrobial activity of the following test compounds on various test organisms listed below was determined by the serial dilution method on agar plate (Heart Infusion agar produced by Difco Co.) (see CHEMOTHERAPY 22, pp. 1126-1128 (1974)), and the minimum inhibitory concentrations (mcg/ml) obtained are shown in Tables 1, 2 and 3 below.
A sample of each test organism was prepared so that the population of the organism was 1×10^8 cells/ml (O.D. 660 mμ=0.07 to 0.16) and 1×10^6 cells/ml (which was obtained by diluting 100 fold the above 1×10^8 cells/ml preparation).

[10] = system: Staphylococcus aureus FDA 209 P; conditions: for MIC: Staphylococcus aureus
[11] = system: Pseudomonas aeruginosa ATCC 10145; conditions: for MIC: Pseudomonas aeruginosa
[12] = system: Pseudomonas putida 12996
[13] = IIDS23, 1×10^6 cells/ml, read-out: Minimum Inhibitory Concentration
[14] = IIDS23, 1×10^8 cells/ml, read-out: Minimum Inhibitory Concentration
[15] = E2, 1×10^6 cells/ml, read-out: Minimum Inhibitory Concentration
[16] = E2, 1×10^8 cells/ml, read-out: Minimum Inhibitory Concentration
[17] = read-out: Minimum Inhibitory Concentration, 1×10^6 cells/ml
[18] = read-out: Minimum Inhibitory Concentration, 1×10^8 cells/ml
[19] = 1×10^6 cells/ml, read-out: Minimum Inhibitory Concentration
[20] = 1×10^8 cells/ml, read-out: Minimum Inhibitory Concentration
[21] = NIH96, 1×10^6 cells/ml, read-out: Minimum Inhibitory Concentration
[22] = NIH96, 1×10^8 cells/ml, read-out: Minimum Inhibitory Concentration
[23] = IFO12648, 1×10^6 cells/ml, read-out: Minimum Inhibitory Concentration
[24] = IFO12648, 1×10^8 cells/ml, read-out: Minimum Inhibitory Concentration
[25] = FDA209, 1×10^6 cells/ml, read-out: Minimum Inhibitory Concentration
[26] = FDA209, 1×10^8 cells/ml, read-out: Minimum Inhibitory Concentration
[27] = ATCC10145, 1×10^6 cells/ml, read-out: Minimum Inhibitory Concentration
[28] = ATCC10145, 1×10^8 cells/ml, read-out: Minimum Inhibitory Concentration
[29] = IFO12648, read-out: Minimum Inhibitory Concentration, 1×10^6 cells/ml
[30] = IFO12648, read-out: Minimum Inhibitory Concentration, 1×10^8 cells/ml

CC1Cc2c(N3CCCC3)c(F)cc3c(=O)c(C(=O)O)cn1c23 (stereo not shown) [Compound 6, 9-(1-Pyrrolidinyl)-8-fluoro-2-methyl-1,2-dihydro-6-oxo-pyrrolo[3,2,1-ij]quinoline-5-carboxylic acid]
MIC [1, 13]: 0.78 µg/mL (≈ 2.47 µM) | MIC [1, 14]: 0.78 µg/mL (≈ 2.47 µM) | MIC [2, 15]: 1.56 µg/mL (≈ 4.93 µM) | MIC [2, 16]: 1.56 µg/mL (≈ 4.93 µM) | MIC [3, 17]: 0.1 µg/mL (≈ 0.316 µM) | MIC [3, 18]: 0.1 µg/mL (≈ 0.316 µM) | MIC [4, 19]: 0.2 µg/mL (≈ 0.632 µM) | MIC [4, 20]: 0.2 µg/mL (≈ 0.632 µM) | MIC [5, 21]: 0.05 µg/mL (≈ 0.158 µM) | MIC [5, 22]: 0.1 µg/mL (≈ 0.316 µM) | Minimum Inhibitory Concentration [6]: 1.56 µg/mL | MIC [6]: 1.56 µg/mL (≈ 4.93 µM) | MIC [7, 19]: 0.2 µg/mL (≈ 0.632 µM) | MIC [7, 20]: 0.39 µg/mL (≈ 1.23 µM) | MIC [8, 23]: 0.39 µg/mL (≈ 1.23 µM) | MIC [8, 24]: 0.78 µg/mL (≈ 2.47 µM) | MIC ([9]; EW33, 1×10^6 cells/ml): 0.024 µg/mL (≈ 0.0759 µM) | MIC ([9]; EW33, 1×10^8 cells/ml): 0.05 µg/mL (≈ 0.158 µM) | MIC [10, 25]: 0.024 µg/mL (≈ 0.0759 µM) | MIC [10, 26]: 0.024 µg/mL (≈ 0.0759 µM) | MIC [11, 27]: 1.56 µg/mL (≈ 4.93 µM) | MIC [11, 28]: 1.56 µg/mL (≈ 4.93 µM)

CC1Cc2c(N3CCOCC3)c(F)cc3c(=O)c(C(=O)O)cn1c23 (stereo not shown) [Compound 7, 9-Morpholino-8-fluoro-2-methyl-1,2-dihydro-6-oxo-pyrrolo[3,2,1-ij]quinoline-5-carboxylic acid]
MIC [1, 13]: 0.78 µg/mL (≈ 2.35 µM) | MIC [1, 14]: 0.78 µg/mL (≈ 2.35 µM) | MIC [2, 15]: 1.56 µg/mL (≈ 4.69 µM) | MIC [2, 16]: 1.56 µg/mL (≈ 4.69 µM) | MIC [3, 17]: 0.024 µg/mL (≈ 0.0722 µM) | MIC [3, 18]: 0.024 µg/mL (≈ 0.0722 µM) | MIC [4, 19]: 0.1 µg/mL (≈ 0.301 µM) | MIC [4, 20]: 0.2 µg/mL (≈ 0.602 µM) | MIC [5, 21]: 0.05 µg/mL (≈ 0.15 µM) | MIC [5, 22]: 0.05 µg/mL (≈ 0.15 µM) | Minimum Inhibitory Concentration [6]: 1.56 µg/mL | MIC [6]: 1.56 µg/mL (≈ 4.69 µM) | MIC [7, 19]: 0.2 µg/mL (≈ 0.602 µM) | MIC [7, 20]: 0.2 µg/mL (≈ 0.602 µM) | MIC [8, 23]: 0.2 µg/mL (≈ 0.602 µM) | MIC [8, 24]: 0.39 µg/mL (≈ 1.17 µM) | MIC ([9]; EW33, 1×10^6 cells/ml): 0.024 µg/mL (≈ 0.0722 µM) | MIC ([9]; EW33, 1×10^8 cells/ml): 0.024 µg/mL (≈ 0.0722 µM) | MIC [10, 25]: 0.024 µg/mL (≈ 0.0722 µM) | MIC [10, 26]: 0.024 µg/mL (≈ 0.0722 µM) | MIC [11, 27]: 1.56 µg/mL (≈ 4.69 µM) | MIC [11, 28]: 1.56 µg/mL (≈ 4.69 µM)

CC1Cc2c(N3CCN(C(F)(F)F)CC3)c(F)cc3c(=O)c(C(=O)O)cn1c23.Cl (stereo not shown) [Compound 8, 9-(4-Trifluoromethyl-1-piperazinyl)-8-fluoro-2-methyl-1,2-dihydro-6-oxo-pyrrolo[3,2,1-ij]quinoline-5-carboxylic acid hydrochloride]
MIC [1, 13]: 0.39 µg/mL | MIC [1, 14]: 0.78 µg/mL | MIC [2, 15]: 0.39 µg/mL | MIC [2, 16]: 0.39 µg/mL | MIC [3, 17]: ≤ 0.006 µg/mL | MIC [3, 18]: ≤ 0.006 µg/mL | MIC [4, 19]: 0.012 µg/mL | MIC [4, 20]: 0.05 µg/mL | MIC [5, 21]: < 0.006 µg/mL | MIC [5, 22]: 0.012 µg/mL | Minimum Inhibitory Concentration [6]: 0.39 µg/mL | MIC [6]: 0.39 µg/mL | MIC [7, 19]: 0.024 µg/mL | MIC [7, 20]: 0.05 µg/mL | MIC [8, 29]: 0.1 µg/mL | MIC [8, 30]: 0.2 µg/mL | MIC ([9]; EW33, 1×10^6 cells/ml): ≤ 0.006 µg/mL | MIC ([9]; EW33, 1×10^8 cells/ml): 0.012 µg/mL | MIC [10, 25]: 0.024 µg/mL | MIC [10, 26]: 0.05 µg/mL | MIC [11, 27]: 0.39 µg/mL | MIC [11, 28]: 0.39 µg/mL

CCn1cc(C(=O)O)c(=O)c2ccc(C)nc21 [Compound 9, 1-Ethyl-1,4-dihydro-7-methyl-4-oxo-1,8-naphthyridine-3-carboxylic acid, reference compound]
Minimum Inhibitory Concentration ([1]; 1×10^6 cells/ml): > 100 µg/mL | MIC ([1]; IIDS23, read-out: Minimum Inhibitory Concentration): > 100 µg/mL | Minimum Inhibitory Concentration ([2]; 1×10^6 cells/ml): > 100 µg/mL | MIC ([2]; E2, read-out: Minimum Inhibitory Concentration): > 100 µg/mL | MIC [3, 17]: 3.13 µg/mL (≈ 13.5 µM) | MIC [3, 18]: 3.13 µg/mL (≈ 13.5 µM) | MIC [4, 17]: 1.56 µg/mL (≈ 6.72 µM) | MIC [4, 18]: 1.56 µg/mL (≈ 6.72 µM) | MIC ([5]; NIH96, read-out: Minimum Inhibitory Concentration, 1×10^6 cells/ml): 1.56 µg/mL (≈ 6.72 µM) | MIC ([5]; NIH96, read-out: Minimum Inhibitory Concentration, 1×10^8 cells/ml): 1.56 µg/mL (≈ 6.72 µM) | MIC [7, 17]: 3.13 µg/mL (≈ 13.5 µM) | MIC [7, 18]: 3.13 µg/mL (≈ 13.5 µM) | MIC [8, 29]: 3.13 µg/mL (≈ 13.5 µM) | MIC [8, 30]: 3.13 µg/mL (≈ 13.5 µM) | MIC ([9]; EW33, 1×10^6 cells/ml): 3.13 µg/mL (≈ 13.5 µM) | MIC ([9]; EW33, 1×10^8 cells/ml): 3.13 µg/mL (≈ 13.5 µM) | Minimum Inhibitory Concentration ([12]; 1×10^6 cells/ml): > 100 µg/mL | MIC ([12]; Pseudomonas putida, 12996, read-out: Minimum Inhibitory Concentration): > 100 µg/mL | Minimum Inhibitory Concentration ([10]; 1×10^6 cells/ml): 50 µg/mL | MIC ([10]; FDA209, read-out: Minimum Inhibitory Concentration): 50 µg/mL (≈ 215 µM) | Minimum Inhibitory Concentration ([11]; 1×10^6 cells/ml): > 100 µg/mL | MIC ([11]; ATCC10145, read-out: Minimum Inhibitory Concentration): > 100 µg/mL
